From patent US11040038B2, “Methods for treating diseases associated with abnormal ACVR1 expression and ACVR1 inhibitors for use in the same” (Sumitomo Dainippon Pharma Oncology, Inc., priority 2018, dated 2021) come the findings set out here.

Data set [1] is described as follows: Preliminary brain PK study. Format: in vivo. The settings on record: mouse, mice, brain tissue. The protocol: In order to be an effective treatment for DIPG, Compound 2 needs to distribute to the brain and more importantly, achieve fairly deep penetration to the pons region of the brain. To assess the general distribution of Compound 2 to the brain, a preliminary brain PK study was conducted. Brain tissue concentrations show very good distribution to the brain (FIG. 4A).

The test system of data set [2] is ALK2/ACVR1 having various mutations. The experiment in a line: Activity on ALK2/ACVR1 having various mutations (FIG. 8). The class given is biochemical. An excerpt:
Biochemical Studies indicate that mutations in the intracellular domain can have activating effects on ACVR1/ALK2 kinase activity. Many of the known mutations enhance the activity of the receptor in response to the receptor ligand.

For data set [3], the system named is hepcidin expression in HepG2 cells. The data set is described as follows: Inhibition of hepcidin expression in HepG2 cells (qPCR). Format: cell-based. The following applies: Homo sapiens. The protocol: To evaluate the in vitro efficacy of Compound 2, HepG2 cells were stimulated with the ALK2 ligand BMP-2 in the presence or absence of various concentrations of Compound 2 and the resulting levels of hepcidin expression were measured by qPCR. The results shown in FIG. 2A, reveal a strong, dose responsive inhibition of hepcidin transcription by Compound 2 (EC50<1 nM). Effects on basal hepcidin transcription were also measured (in the absence of BMP-2 stimulation) and the results are shown in FIG. 2B. Under these experimental conditions, Compound 2 inhibited hepcidin expression in a dose responsive manner (IC50˜100 nM).

Data set [4] concerns SMAD1/5 phosphorylation in BMP2 stimulated HepG2 cells. The data set is described as follows: Inhibition of SMAD1/5 phosphorylation in BMP2 stimulated HepG2 cells. The settings on record: Homo sapiens; HepG2 cells stimulated with BMP2. Format: cell-based. An excerpt:
SMAD proteins are transcription factors involved in signaling downstream of TGFβ receptors. The TGFβ receptor ALK2 phosphorylates SMADs when activated by bone morphogenic proteins such as BMP2, which leads to SMAD nuclear translocation, transcriptional initiation and increased expression of genes like HAMP which codes for the peptide hormone hepcidin. Therefore, compounds that target ALK2 should inhibit BMP induced SMAD phosphorylation. In order to evaluate the in vitro potency of Compound 2, HepG2 cells were stimulated with the ALK2 ligand BMP2 in the presence or absence of various concentrations of Compound 2.

Data set [5] is described as follows: IV and PO plasma pharmacokinetics in rats. The class given is in vivo. The settings on record: Sprague-Dawley, rat, fasted female SD rats. The procedure: Pharmacokinetic and toxicology of Compound 2 were tested in rats. The intravenous (IV) and oral (PO) pharmacokinetics of Compound 2 were determined in plasma in fasted female Sprague-Dawley (SD) rats. The formulation used was 20% solutol and 80% saline for both administration routes. The nominal dose was 2 mg/kg (IV) and 20 mg/kg (PO). Samples were taken at 8 time points and the drug concentrations were determined by LC-MS/MS.

Data set [6] is described as follows: Oral pharmacokinetics in a single human DIPG patient. The following applies: free base, nominal 240 mg/m2 PO. The class given is in vivo. The protocol: Compound 2 free base was tested in humans. Oral pharmacokinetics of Compound 2 were determined in a single human patient for the treatment of DIPG. The formulation was free base Compound 2 by gelatin capsule daily for 15 days, followed by a 20-day suspension period. Dosing was resumed by dissolving in juice and administering via nasogastric tube for 9 days. The nominal dose is 240 mg/m2 (PO). Blood samples were collected at four (4) time points and the drug concentrations are determined by LC-MS/MS.
Additional PK parameters were evaluated.

A short description of data set [7]: Comparison of concentration in plasma and brain tissue. The class given is in vivo, mice. The following applies: 20 mg/kg. An excerpt:
Additionally, a comparison of Compound 2 concentration in the plasma and brain tissue was made, the results of which are in FIG. 4B and Table 6.

Setting [8] is: Table 4, route and dose not given.
Setting [9] is: Table 5, route and dose not given.

SMILES strings stand for the structures.

In the case of `COc1cc(Nc2nccc(Nc3cccnc3-c3ccccn3)n2)ccc1N1CCN(C)CC1` [Compound 2, N^4-(2,2′-bipyridin-3-yl)-N^2-(3-methoxy-4-(4-methylpiperazin-1-yl)phenyl)pyrimidine-2,4-diamine], the AUC(0-t) came out at 750 ng·h/mL in data set [1] (setting [8]) and 10300 ng·h/mL in data set [1] (setting [9]). Besides, the Cmax in data set [1] (setting [8]) was 691 ng/g; in data set [1] (setting [9]), 2740 ng/g; in data set [5] (20 mg/kg PO) it was 159 ng/mL; in data set [7] (CD-1, mouse, po, brain), 1690 ng/g; in data set [7] (CD-1, mouse, po, plasma), 378 ng/mL. Besides, the Tmax in data set [1] (setting [8]) was 0.083 h; in data set [1] (setting [9]), 1.8 h; in data set [5] (20 mg/kg PO), 5.33 h. Moreover, the half-life was 1.23 h in data set [1] (setting [8]), 2.57 h in data set [1] (setting [9]) and 6.58 h in data set [5] (20 mg/kg PO). Besides, the AUC(0-inf) in data set [1] (Table 4, route and dose not printed (FIG. 4A: intravenous and oral)) worked out at 758 ng·h/mL; in data set [1] (Table 5, route and dose not printed (FIG. 4A: intravenous and oral)) it was 10300 ng·h/mL. The “Inhibition of ALK2 receptors having various mutations” value in data set [2] is “effective in inhibiting ALK2 receptors having various mutations”. In addition, the EC50 in data set [3] (BMP-2 stimulation, qPCR, read-out: EC50, inhibition of hepcidin transcription) is under 1 nM; in data set [4], 162 nM. The IC50 in data set [3] (absence of BMP-2 stimulation, read-out: IC50, inhibition of basal hepcidin expression) was about 100 nM. Moreover, the AUC in data set [5] (20 mg/kg PO) is 2520 ng·h/mL; in data set [7] (CD-1, mouse, po, plasma, read-out: AUC), 2340 ng·h/mL; in data set [7] (brain), 7,765 ng/g · hr. For the same molecule, the bioavailability in data set [5] (20 mg/kg PO vs 2 mg/kg IV, read-out: Oral Bioavailability (% F)) was 60.8%. In addition, the “Oral absorption, detection in plasma” value in data set [6] was “detected in plasma 24 hours post-dosing”.

As usually defined, the AUC(0-t) is exposure summed from dosing to a finite time, without extrapolation to infinity. The low end stands for less exposure, the high end for more exposure. Broadly, the Cmax is the maximum level reached in the sampled fluid or tissue. As a reminder, the Tmax is the time from dosing to the highest level. The half-life is the time in which the quantity being followed falls by half. By AUC(0-inf) is commonly meant the area under the concentration-time curve extrapolated to infinity. The term EC50 denotes the concentration giving half of the maximal effect. The IC50 is the point on the concentration scale where inhibition reaches its midpoint. By AUC is commonly meant concentration integrated over time. Usually bioavailability stands for the share of a dose that reaches the circulation, judged against a reference dose that is usually intravenous.
